Data as given in patent publication US8901147B2, “Bi-heteroaryl compounds as Vps34 inhibitors” (Novartis AG, priority 2010, dated 2014).

biological target: recombinant human Vps34 (Homo sapiens, UniProt Q8NEB9); assay: Vps34 KinaseGlo assay; type: biochemical; details: KinaseGlo luminescence ATP detection; PI/OG substrate; 1 μM ATP; room temperature; 8 concentrations, n=2
Protocol: It was then resuspended in 3% OctylGlucoside by vortexing and stored at 4° C. 5 μL of a mix of PI/OG with recombinant human Vps34 were added. Kinase reactions were started by addition of 5 μl of ATP-mix containing in a final volume 10 μL 10 mM TRIS-HCl pH 7.5, 3 mM MgCl2, 50 mM NaCl, 0.05% CHAPS, 1 mM DTT and 1 μM ATP, and occurred at room temperature. Reactions were stopped with 10 μl of KinaseGlo and plates were read 10 minutes later in a Synergy2 reader using an integration time of 0.1 seconds per well.

recombinant human Vps34, sequence (Q8NEB9 whole entry): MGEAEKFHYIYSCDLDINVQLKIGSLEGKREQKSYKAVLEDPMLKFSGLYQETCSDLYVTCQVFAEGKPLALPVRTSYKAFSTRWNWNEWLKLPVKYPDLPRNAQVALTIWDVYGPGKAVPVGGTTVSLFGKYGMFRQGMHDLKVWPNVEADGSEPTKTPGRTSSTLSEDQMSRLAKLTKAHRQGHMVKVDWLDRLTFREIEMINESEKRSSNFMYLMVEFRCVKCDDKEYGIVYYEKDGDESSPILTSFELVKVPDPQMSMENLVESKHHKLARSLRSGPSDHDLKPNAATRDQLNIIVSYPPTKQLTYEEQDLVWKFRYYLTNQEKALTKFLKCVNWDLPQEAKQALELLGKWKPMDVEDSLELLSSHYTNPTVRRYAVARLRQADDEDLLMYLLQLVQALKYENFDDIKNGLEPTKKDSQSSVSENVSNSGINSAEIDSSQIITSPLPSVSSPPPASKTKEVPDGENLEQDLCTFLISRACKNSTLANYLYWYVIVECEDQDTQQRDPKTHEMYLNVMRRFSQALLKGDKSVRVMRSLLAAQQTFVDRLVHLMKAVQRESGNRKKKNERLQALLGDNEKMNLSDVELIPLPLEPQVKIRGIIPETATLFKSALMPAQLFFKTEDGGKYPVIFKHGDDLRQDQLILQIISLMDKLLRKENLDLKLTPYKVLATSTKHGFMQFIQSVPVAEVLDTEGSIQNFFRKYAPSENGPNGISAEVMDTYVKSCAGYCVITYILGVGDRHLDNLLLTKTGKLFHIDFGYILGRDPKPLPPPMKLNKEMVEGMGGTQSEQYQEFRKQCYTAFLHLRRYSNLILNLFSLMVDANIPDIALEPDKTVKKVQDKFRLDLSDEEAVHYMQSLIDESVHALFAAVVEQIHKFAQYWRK

IC50 [µM]	Compound
0.096	CC(C)(O)CNc1ncc(-c2ccnc(Nc3ccncc3)n2)c(C(F)(F)F)n1 [Example 24, 2-methyl-1-(2-(pyridin-4-ylamino)-4′-(trifluoromethyl)-4,5′-bipyrimidin-2′-ylamino)propan-2-ol]
0.117	CC(C)(O)CNc1ncc(-c2ccnc(Nc3ccc(C#N)cc3)n2)c(C(F)(F)F)n1 [Example 25, 4-(2′-(2-hydroxy-2-methylpropylamino)-4′-(trifluoromethyl)-4,5′-bipyrimidin-2-ylamino)benzonitrile]
0.031	CCc1nc(NCC(C)(C)O)ncc1-c1ccnc(Nc2ccc(C#N)cc2)n1 [Example 37a, 4-(4′-ethyl-2′-(2-hydroxy-2-methylpropylamino)-4,5′-bipyrimidin-2-ylamino)benzonitrile]
0.276	(S)-1-[4′-Cyclopropylmethyl-2-(pyridin-4-ylamino)-[4,5]bipyrimidinyl-2′-ylamino]-propan-2-ol [Example 10k]
